{
  "source": "patent US20050239757A1",
  "about": "“Hormone treatment of macular degeneration” (priority 2004, published 2005)",
  "molecules": {"B1": {"name": "myelin basic protein (protein, UniProt P02686 1-304, looked up)", "Myelin basic protein": "MGNHAGKRELNAEKASTNSETNRGESEKKRNLGELSRTTSEDNEVFGEADANQNNGTSSQDTAVTDSKRTADPKNAWQDAHPADPGSRPHLIRLFSRDAPGREDNTFKDRPSESDELQTIQEDSAATSESLDVMASQKRPSQRHGSKYLATASTMDHARHGFLPRHRDTGILDSIGRFFGGDRGAPKRGSGKDSHHPARTAHYGSLPQKSHGRTQDENPVVHFFKNIVTPRTPPPSQGKGRGLSLSRFSWGAEGQRPGFGYGGRASDYKSAHKGFKGVDAQGTLSKIFKLGGRDSRSGSPMARR"}},
  "key": {"[1]": {"test_system": "macular degeneration", "test": "Clinical case: sublingual progesterone in a patient with macular degeneration", "assay_type": "in vivo, human", "method": "An adult human presented with macular degeneration. They had visual acuity of 20/200 in each eye. After the use of sublingual progesterone, one application, their vision improved to 20/100 and 20/40. […] They were evaluated for hormone allergy therapy by assessing their anti-hormone antibodies and found to have elevated levels of IgE, IgG, and IgM antibodies to progesterone.\nThe subject then received progesterone 1:10 sublingual drops which they continue to use."}, "[2]": {"test_system": "serum anti-estrogen IgG antibodies", "test": "Competition ELISA: absorption of serum IgG anti-estrogen with specific and non-specific antigens", "assay_type": "binding, human", "settings": "for Absorption of serum IgG antibodies, in words: antigen added to the liquid phase; for Inhibition of anti-estrogen binding to estrogen (IgG), range over samples: antigen in liquid phase, Table 2; for Percent inhibition after absorption (IgG) / Serum anti-estrogen IgG level after absorption: antigen 250 μg/mL; for Serum anti-estrogen IgG level after absorption: optical density at 405 nm", "method": "(§1) Enzyme-linked immunosorbent assay (ELISA) was used for testing antibodies against estrogen and progesterone in the sera of patients with premenstrual asthma and with control subjects. […] Plates were incubated overnight at 4° C. and then washed three times with […] of Tris-buffered saline (TBS) containing 0.05% Tween 20, pH 7.4. […] Plates were incubated for 2 h (for IgG and IgM) and overnight (for IgE), and then washed four times with PBS-Tween 20. Alkaline-phosphatase-conjugated goat anti-human IgG, IgM or IgE F(ab′)2 fragment at optimal dilution of 1:700 (IgG); 1:500 (IgM) and 1:250 (IgE) was added to corresponding wells. The plates were then incubated for an additional 2 h at room temperature. After washing five times with TBS-Tween buffer, the enzyme reaction was started by adding 100 μl of para-nitrophenylphosphate in 0.1 mL of diethanolamine buffer (1 mg/ml) containing 1 mM MgCl2 and sodium azide, pH 9.8. The reaction was stopped 45 minutes later with 50 μl of 1 N NaOH. The optical density was read at 405 nm (OD405) with a microtiter reader.\n(§2) 100 μl of serum diluent buffer was added to all wells. […] After a 60-minute incubation, 100 μl serum anti-estrogen or anti-progesterone was added to all wells. […] Results were calculated as a percentage of inhibition in antigen-antibody reaction.\n(§3) To examine whether antibodies to estrogen or progesterone are specific or cross-reactive, competition ELISA was performed by adding specific and non-specific antigens in liquid phase and examined prevention of serum antibody binding to the antigen in solid phase. […] This cross-reaction between estrogen and progesterone antibodies may be due to structural similarities between these two hormones."}, "[3]": {"test_system": "serum anti-estrogen IgE antibodies", "test": "Competition ELISA: absorption of serum IgE anti-estrogen with specific and non-specific antigens", "assay_type": "binding, human", "settings": "for Absorption of serum IgE antibodies, in words: antigen added to the liquid phase; for Inhibition of IgE anti-estrogen binding, range over samples: antigen in liquid phase, summary of Table 3; for Percent inhibition after absorption (IgE) / Serum anti-estrogen IgE level after absorption: antigen 250 μg/mL; for Serum anti-estrogen IgE level after absorption: optical density at 405 nm", "method": "as §1, §2, §3"}, "[4]": {"settings": "serum sample 1, before absorption 1.83"}, "[5]": {"settings": "serum sample 2, before absorption 1.25"}, "[6]": {"settings": "serum sample 3, before absorption 0.76"}, "[7]": {"settings": "serum sample 1, before absorption 2.15"}, "[8]": {"settings": "serum sample 2, before absorption 1.66"}, "[9]": {"settings": "serum sample 3, before absorption 1.34"}},
  "note": "Several values for one entry are separate records, joined by “and”; a condition that tells them apart may be missing. Equal values may be shown once.",
  "data": [
    {"molecule": "CC(=O)[C@H]1CC[C@H]2[C@@H]3CCC4=CC(=O)CC[C@]4(C)[C@H]3CC[C@]12C", "note": "[progesterone]", "values": [
      {"measurement": "Visual acuity after treatment", "setting": "[1]; adult human female, sublingual, one application, baseline 20/200 in each eye", "result": "20/100 and 20/40"},
      {"measurement": "Ophthalmologist's assessment", "setting": "[1]; return visit two weeks later, as reported by the patient", "result": "remarkably improved"}
    ]},
    {"molecule": "En: Estrogen (estradiol) bound to bovine serum albumin, purchased from Sigma; specific antigen in competition ELISA", "values": [
      {"measurement": "Absorption of serum IgG antibodies, in words", "setting": "[2]", "result": "significantly absorbed"},
      {"measurement": "Inhibition of anti-estrogen binding to estrogen (IgG), range over samples", "setting": "[2]", "result": "52-67%"},
      {"measurement": "Percent inhibition after absorption (IgG)", "setting": "[2]; serum sample 1", "result": "(67%)"},
      {"measurement": "Serum anti-estrogen IgG level after absorption", "setting": "[2]; [4]", "result": 0.61},
      {"measurement": "Percent inhibition after absorption (IgG)", "setting": "[2]; serum sample 2", "result": "(59%)"},
      {"measurement": "Serum anti-estrogen IgG level after absorption", "setting": "[2]; [5]", "result": 0.52},
      {"measurement": "Percent inhibition after absorption (IgG)", "setting": "[2]; serum sample 3", "result": "(52%)"},
      {"measurement": "Serum anti-estrogen IgG level after absorption", "setting": "[2]; [6]", "result": 0.37},
      {"measurement": "Absorption of serum IgE antibodies, in words", "setting": "[3]", "result": "significantly absorbed"},
      {"measurement": "Inhibition of IgE anti-estrogen binding, range over samples", "setting": "[3]", "result": "54-62%"},
      {"measurement": "Percent inhibition after absorption (IgE)", "setting": "[3]; serum sample 1", "result": "(55%)"},
      {"measurement": "Serum anti-estrogen IgE level after absorption", "setting": "[3]; [7]", "result": 0.96},
      {"measurement": "Percent inhibition after absorption (IgE)", "setting": "[3]; serum sample 2", "result": "(54%)"},
      {"measurement": "Serum anti-estrogen IgE level after absorption", "setting": "[3]; [8]", "result": 0.77},
      {"measurement": "Percent inhibition after absorption (IgE)", "setting": "[3]; serum sample 3", "result": "(62%)"},
      {"measurement": "Serum anti-estrogen IgE level after absorption", "setting": "[3]; [9]", "result": 0.51}
    ]},
    {"molecule": "Pn: Progesterone bound to bovine serum albumin, purchased from Sigma; antigen in competition ELISA", "values": [
      {"measurement": "Absorption of serum IgG antibodies, in words", "setting": "[2]", "result": "significantly absorbed"},
      {"measurement": "Inhibition of anti-estrogen binding to estrogen (IgG), range over samples", "setting": "[2]", "result": "41-52%"},
      {"measurement": "Percent inhibition after absorption (IgG)", "setting": "[2]; serum sample 1", "result": "(52%)"},
      {"measurement": "Serum anti-estrogen IgG level after absorption", "setting": "[2]; [4]", "result": 0.87},
      {"measurement": "Percent inhibition after absorption (IgG)", "setting": "[2]; serum sample 2", "result": "(45%)"},
      {"measurement": "Serum anti-estrogen IgG level after absorption", "setting": "[2]; [5]", "result": 0.69},
      {"measurement": "Percent inhibition after absorption (IgG)", "setting": "[2]; serum sample 3", "result": "(41%)"},
      {"measurement": "Serum anti-estrogen IgG level after absorption", "setting": "[2]; [6]", "result": 0.45},
      {"measurement": "Absorption of serum IgE antibodies, in words", "setting": "[3]", "result": "significantly absorbed"},
      {"measurement": "Inhibition of IgE anti-estrogen binding, range over samples", "setting": "[3]", "result": "37-43%"},
      {"measurement": "Percent inhibition after absorption (IgE)", "setting": "[3]; serum sample 1", "result": "(37%)"},
      {"measurement": "Serum anti-estrogen IgE level after absorption", "setting": "[3]; [7]", "result": 1.35},
      {"measurement": "Serum anti-estrogen IgE level after absorption", "setting": "[3]; [8]", "result": 0.98},
      {"measurement": "Percent inhibition after absorption (IgE)", "setting": "[3]; serum sample 3", "result": "(43%)"},
      {"measurement": "Serum anti-estrogen IgE level after absorption", "setting": "[3]; [9]", "result": 0.76}
    ]},
    {"molecule": "bovine serum albumin [BSA]", "values": [
      {"measurement": "Absorption of serum IgG antibodies, in words", "setting": "[2]", "result": "did not absorb"},
      {"measurement": "Serum anti-estrogen IgG level after absorption", "setting": "[2]; [4]", "result": 1.79},
      {"measurement": "Serum anti-estrogen IgG level after absorption", "setting": "[2]; [5]", "result": 1.13},
      {"measurement": "Serum anti-estrogen IgG level after absorption", "setting": "[2]; [6]", "result": 0.81},
      {"measurement": "Absorption of serum IgE antibodies, in words", "setting": "[3]", "result": "did not absorb"},
      {"measurement": "Serum anti-estrogen IgE level after absorption", "setting": "[3]; [7]", "result": 2.24},
      {"measurement": "Serum anti-estrogen IgE level after absorption", "setting": "[3]; [8]", "result": 1.53},
      {"measurement": "Serum anti-estrogen IgE level after absorption", "setting": "[3]; [9]", "result": 1.26}
    ]},
    {"molecule": "B1", "values": [
      {"measurement": "Absorption of serum IgG antibodies, in words", "setting": "[2]", "result": "did not absorb"},
      {"measurement": "Serum anti-estrogen IgG level after absorption", "setting": "[2]; [4]", "result": 1.67},
      {"measurement": "Serum anti-estrogen IgG level after absorption", "setting": "[2]; [5]", "result": 1.13},
      {"measurement": "Serum anti-estrogen IgG level after absorption", "setting": "[2]; [6]", "result": 0.68},
      {"measurement": "Absorption of serum IgE antibodies, in words", "setting": "[3]", "result": "did not absorb"},
      {"measurement": "Serum anti-estrogen IgE level after absorption", "setting": "[3]; [7]", "result": 2.05},
      {"measurement": "Serum anti-estrogen IgE level after absorption", "setting": "[3]; [8]", "result": 1.73},
      {"measurement": "Serum anti-estrogen IgE level after absorption", "setting": "[3]; [9]", "result": 1.11}
    ]}
  ]
}
